In the supplement of paper PMC10307832:

Key:
Assay in all cases: relative viability (nuclei count vs DMSO), 5 days (fraction); higher = more cells survive
OSI-027 + Olaparib = compound: COc1cccc2cc(-c3nc([C@H]4CC[C@H](C(=O)O)CC4)n4ncnc(N)c34)[nH]c12 [OSI-027] + O=C(c1cc(Cc2n[nH]c(=O)c3ccccc23)ccc1F)N1CCN(C(=O)C2CC2)CC1 [Olaparib] (partner 8 µM)
Outline: (§1)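 After 5 days of treatment, lung cancer cells in 1536-well plates were fixed and stained in a single step (final 0.05% Triton X-100, 1% formaldehyde, 1 ug/ml Hoechst) and their nuclei counted on 4× images. Treatment had been applied by pin tool the day after seeding as one drug alone or as a fixed anchor-drug dose with five library-drug doses (not always all listed) in √10 steps. Relative viability is the nuclei count of treated wells divided by that of vehicle wells, and values are medians of duplicate plates.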

Vemurafenib + Phenformin = compound: CCCS(=O)(=O)Nc1ccc(F)c(C(=O)c2c[nH]c3ncc(-c4ccc(Cl)cc4)cc23)c1F [Vemurafenib] + N=C(N)NC(=N)NCCc1ccccc1 [Phenformin] (partner 250 µM)
Outline: as §1

OSI-027 + Crizotinib = compound: COc1cccc2cc(-c3nc([C@H]4CC[C@H](C(=O)O)CC4)n4ncnc(N)c34)[nH]c12 [OSI-027] + C[C@@H](Oc1cc(-c2cnn(C3CCNCC3)c2)cnc1N)c1c(Cl)ccc(F)c1Cl [Crizotinib] (partner 1 µM)
Outline: as §1

Vemurafenib + AZD7762 = compound: CCCS(=O)(=O)Nc1ccc(F)c(C(=O)c2c[nH]c3ncc(-c4ccc(Cl)cc4)cc23)c1F [Vemurafenib] + NC(=O)Nc1cc(-c2cccc(F)c2)sc1C(=O)N[C@H]1CCCNC1 [AZD7762] (partner 0.2 µM)
Outline: as §1

Cell Line	relative viability (OSI-027 + Olaparib; first compound 0.01 µM)	relative viability (OSI-027 + Olaparib; first compound 0.03162 µM)	relative viability (OSI-027 + Olaparib; first compound 0.1 µM)	relative viability (OSI-027 + Olaparib; first compound 0.3162 µM)	relative viability (OSI-027 + Olaparib; first compound 1 µM)	relative viability (Vemurafenib + Phenformin; first compound 0.03162 µM)	relative viability (Vemurafenib + Phenformin; first compound 0.1 µM)	relative viability (Vemurafenib + Phenformin; first compound 0.3162 µM)	relative viability (Vemurafenib + Phenformin; first compound 1 µM)	relative viability (OSI-027 + Crizotinib; first compound 0.01 µM)	relative viability (OSI-027 + Crizotinib; first compound 0.03162 µM)	relative viability (OSI-027 + Crizotinib; first compound 0.1 µM)	relative viability (OSI-027 + Crizotinib; first compound 0.3162 µM)	relative viability (OSI-027 + Crizotinib; first compound 1 µM)	relative viability (Vemurafenib + AZD7762; first compound 0.03162 µM)	relative viability (Vemurafenib + AZD7762; first compound 0.1 µM)	relative viability (Vemurafenib + AZD7762; first compound 0.3162 µM)	relative viability (Vemurafenib + AZD7762; first compound 1 µM)
201T	0.909	0.908	0.838	0.887	0.802	0.421	0.491	0.42	0.456	1.05	1.11	1.08	1.03	0.847	0.652	0.515	0.604	0.617
A549	0.465	0.258	0.305	0.282	0.0927	0.163	0.154	–	0.146	0.782	0.711	0.704	0.45	0.167	–	–	–	–
A-427	0.817	0.835	0.643	0.593	0.506	0.317	0.313	0.267	0.365	0.91	0.821	0.866	0.673	0.374	0.696	0.709	–	0.792
ABC-1	0.667	0.686	0.795	0.859	0.404	0.241	0.297	0.276	0.246	1.23	0.881	1.1	0.957	0.47	0.668	0.775	0.622	0.813
BEN	1.15	1.19	0.769	0.554	0.527	0.255	0.299	–	0.249	0.921	0.545	0.612	0.34	0.393	0.566	0.761	0.392	0.638
CAL-12T	0.751	0.749	0.777	0.53	0.335	0.538	0.453	0.602	0.552	0.567	0.568	0.62	0.718	0.487	0.594	0.617	0.535	0.593
COR-L23	0.377	0.335	0.208	0.401	0.279	0.38	0.464	0.334	0.435	0.688	0.549	0.674	0.985	0.4	–	–	–	–
COR-L 105	0.713	0.722	0.726	0.571	0.685	0.399	–	–	0.5	0.754	0.741	0.766	0.894	0.415	–	–	–	–
Calu-6	0.568	0.621	0.637	0.64	0.577	–	–	–	–	0.806	0.726	0.765	0.626	0.625	–	–	–	–
ChaGo-K-1	0.429	0.423	0.451	0.415	0.317	0.472	0.545	0.352	0.481	1.38	1.02	1.2	0.997	0.922	0.818	0.853	0.738	0.882
EBC-1	0.662	0.736	0.67	0.579	0.331	–	–	–	–	0.21	0.21	0.183	0.184	0.164	–	–	–	–
EKVX	0.659	0.935	0.88	0.832	0.516	0.223	–	0.223	0.213	0.92	0.816	1.03	0.822	0.513	0.689	–	0.683	0.6
EMC-BAC-2	0.487	0.489	0.468	0.402	0.29	0.509	0.461	0.26	0.452	0.752	0.786	0.737	0.683	0.416	1.06	1.09	0.851	1.05
EPLC-272H	0.714	0.495	0.661	0.386	0.298	0.355	0.226	0.263	0.362	1.05	0.872	0.944	0.697	0.787	0.251	0.166	0.156	0.218
H3255	0.595	0.555	0.588	0.569	0.409	0.3	–	0.342	0.332	0.842	0.838	0.76	0.886	0.587	0.843	–	0.723	0.949
HARA	0.771	0.499	0.841	0.616	0.352	0.434	0.283	0.328	0.323	1.07	0.85	0.999	1.09	0.407	0.0775	0.292	0.168	0.37
HCC-15	0.799	0.745	0.729	0.683	0.397	0.441	0.497	–	0.45	0.933	0.712	0.789	0.732	0.482	1.05	1.22	1.17	1.1
HCC-44	1.06	1.01	1	1	0.716	0.157	0.206	–	0.213	0.819	0.794	0.817	0.737	0.343	0.945	0.975	1.2	1.03
HCC-78	0.769	0.699	0.723	0.558	0.397	0.656	0.618	0.817	0.727	0.289	0.322	0.33	0.274	0.185	0.513	0.493	0.65	0.777
HCC-366	0.331	0.386	0.417	0.386	0.219	0.61	0.565	0.247	0.593	0.817	0.315	0.52	0.415	0.119	0.305	0.213	–	0.259
